# Test results taken from patent US20130260458A1, “METHOD OF INDUCING DIFFERENTIATION OF HUMAN PLURIPOTENT STEM CELL INTO HEPATIC PROGENITOR CELL” (NATIONAL UNIVERSITY CORPORATION CHIBA UNIVERSITY, priority 2012, published 2013).
# Experiments:
# Human iPS cells (201B7) [1] = experiment: Induction of differentiation into hepatic progenitor cells by growth-promoting agents (real-time quantitative PCR of AFP and DLK-1); assay type: cell-based; conditions: iPS cells transfected with FOXA2, GATA4, HEX, C/EBPα three times every three days, 8th day, n=3, ± standard error, ReproFF lane = 100; for α-fetoprotein/RPL19 ratio (mRNA expression): FIG. 3-1; for DLK-1/RPL19 ratio (mRNA expression): FIG. 3-2
# Method: Human iPS cells (201B7, RIKEN cell bank) were seeded onto a matrigel-coated 6-well plate, and cultured in a medium, ReproFF in accordance with a conventional method under the following conditions: 37° C. and 5% carbon dioxide. A lipofection reagent, Lipofectamine LTX (registered trade mark, Life Technologies Japan Ltd.) was used to transfect 0.5 μg of expression plasmids of FOXA2, GATA4, HEX and C/EBPα, respectively.
# As the expression vectors of the transcription factors, used were expression vectors (human TrueClone, OriGene Technologies, Inc., COSMO BIO co., ltd.) in which full-length cDNAs of human FOXA2, GATA4, HEX and CEBPA were each incorporated in the downstream of a potent-promoting agent derived from cytomegalovirus. In the human FOXA2 expression vector (catalog No. sc122913), the full-length cDNA coding human FoxA2 protein was inserted between EcoR1 and Sal1 restricted sites of pCMV6-XL5. In the human GATA4 expression vector (catalog No. sc124037), the full-length cDNA coding human GATA4 protein was inserted between EcoR1 and Sal1 restricted sites of pCMV6-XL4. In the human HEX expression vector (catalog No. sc321626), the full-length cDNA coding human HHEX protein was inserted between Sgf1 and Mlu1 restricted sites of pCMV6-AC. In the human CEBPA expression vector (catalog No. sc303472), the full-length cDNA coding human CEBPA protein was inserted between EcoR1 and Sal1 restricted sites of pCMV6-XL5.
# Immediately before transfection, the medium to be used was changed to a medium obtained by adding oncostatin M (Wako Pure Chemical Industries, Ltd.), EGF (Wako Pure Chemical Industries, Ltd.) and retinoic acid (Wako Pure Chemical Industries, Ltd.) to the iPSm(−) medium. Here, the iPSm(−) medium corresponds to a medium obtained by eliminating a basic fibroblast growth factor from a medium for feeder cells of human iPS cells recommended by CiRA at Kyoto University. […]
# The transfection of the transcription factors was repeated three times every three days, and, on the 8th day, RNA was extracted using Isogen (NIPPON GENE CO., LTD.). […] Then, the amount of expressed α-fetoprotein (AFP), which was an indicator of hepatic progenitor cells, was analyzed by the real-time quantitative PCR method using a real-time PCR analysis reagent, Fast SYBR Green Master Mix (trade name, Life Technologies Japan Ltd.). […] The amounts of α-fetoprotein (AFP) and Delta-like (DLK)-1 expressed were quantitatively determined as an indicator of hepatic progenitor cells by employing ribosome-related protein (RLP19) as internal standard (each group, n=3).
# The real-time quantitative PCR was performed by using the following primers through a PCR cycle including 30 cycles of 5 seconds at 95° C. and 20 seconds at 60° C.
# Human iPS cells (201B7) [2] = experiment: Expression of transcription factors in iPS cells cultured with single growth-promoting agents (RT-PCR, electrophoresis); assay type: cell-based; conditions: iPS cells in iPSm(−) medium with the growth-promoting agent added; PCR and electrophoresis, FIG. 2
# Method: Reverse transcriptase (Life Technologies Japan Ltd.) was used to synthesize cDNAs of iPS cells, fetal hepatic cells and adult hepatic cells from 3 μg of RNA. The cDNAs were subjected to polymerase chain reaction (PCR) using the following primers to GATA4, FOXA2, HEX, C/EBPα and C/EBPβ, respectively, and to electrophoresis using 2% low-melting agarose (Lonza) and 1×TAE, for investigations on the expression of GATA4, FOXA2, HEX, C/EBPα and C/EBNβ in the iPS cells, fetal hepatic cells and adult hepatic cells.
# After electrophoresis, the 2% low-melting agarose was irradiated with ultraviolet rays at 254 nm from a UV transilluminator (UVP LLC, NLMS-20E), and a Polaroid photograph (FUJIFILM Corporation, FP-3000B) thereof was taken with a gel camera (Funakoshi DS-300) to analyze an electrophoretic pattern.
# PCR cycles performed included 30 cycles of thermal denaturation: 1 minute at 94° C.; annealing: 1 minute and elongation reaction: 1 minute at 72° C.
# Human iPS cells (201B7, RIKEN cell bank) were seeded onto a matrigel-coated 6-well plate, and cultured in a feeder-less medium, ReproFF (trade name, Reprocell Inc.) for culture of stem cells maintained in an undifferentiated state, without using a feeder cell, under conventional conditions: 37° C. and 5% carbon dioxide.
# A medium obtained by adding a 20% knock-out serum replacement (Life Technologies Japan Ltd.), 10% Minimum Essential Amino Acids (Life Technologies Japan Ltd.), 2 mM of L-glutamine (Life Technologies Japan Ltd.) and 1 mM of 2-mercaptoethanol to a D-MEM/F12 medium (Dulbecco's Modified Eagle Medium-F12 medium, Sigma-Aldrich Japan) was used as an iPSm(−) medium.
# The following growth-promoting agents were added to the iPSm(−) medium, and SOX-17, GATA6, FOXA2, GATA4, HEX, TTR and C/EBPα were expressed in a manner similar to that in Experiment 1.
# As the growth-promoting agents, added were bFGF (basic fibroblast growth factor, Wako Pure Chemical Industries, Ltd.), BMP (bone morphogenetic protein)-4 (Wako Pure Chemical Industries, Ltd.), oncostatinM (Wako Pure Chemical Industries, Ltd.), an epidermal growth factor (EGF, Wako Pure Chemical Industries, Ltd.), a nerve growth factor (NGF, R & D Systems, Inc.), TGF-β, (transform growth factor-β, R& D Systems, Inc.), retinoic acid (Sigma-Aldrich Japan) and a hepatic cell growth factor (HGF, Sigma-Aldrich Japan).
# RT-PCR to SOX-17, GATA6 and TTR was performed under the following conditions.
Molecule,α-fetoprotein/RPL19 ratio (mRNA expression) (Human iPS cells (201B7) [1]),DLK-1/RPL19 ratio (mRNA expression) (Human iPS cells (201B7) [1]),expression of C/EBPα (Human iPS cells (201B7) [2]),expression of FOXA2 (Human iPS cells (201B7) [2]),expression of GATA4 (Human iPS cells (201B7) [2]),expression of GATA6 (Human iPS cells (201B7) [2]),expression of HEX (Human iPS cells (201B7) [2])
C[C@@H]1C[C@H]2[C@@H]3CCC4=CC(=O)C=C[C@]4(C)[C@@]3(F)[C@@H](O)C[C@]2(C)[C@@]1(O)C(=O)CO [dexamethasone],50.1±5,208±54,–,–,–,–,–
CC1=C(/C=C/C(C)=C/C=C/C(C)=C/C(=O)O)C(C)(C)CCC1 [retinoic acid],133±58,79±40,–,–,–,–,–
"TGF-β: transform growth factor-β, R&D Systems",–,–,not observed to be expressed,not observed to be expressed,not observed to be expressed,observed to be expressed,not observed to be expressed
